Molecules are shown by their SMILES.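 Growth conditions: 96-well plates. Treatment: test compound, 48 hours, 5 concentrations. Analysis: linear interpolation between bracketing concentrations; unreached endpoints set to highest concentration. GI50 marks 50% less growth.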 Active and inactive are the calls of the source. Cut-off read from the data, not from the text of the source: active = GI50 up to about 1.1 µM and inactive = higher.

Holding throughout (assay): NCI-60 cell line screen, 48 h
The subject of assay [1] is IGROV-1.
Assay [2] has as its system A498.
Assay [3] relates to 786-0.
In assay [4] the test system is U-251.
Assay [5] has as its system Malme-3M.
The subject of assay [6] is SK-MEL-5.
For assay [7], the system named is HCT-15.
Assay [8] has as its system SR.
Assay [9] relates to HOP-62.
The test system of assay [10] is MDA-MB-231.
The test system of assay [11] is NCI-H226.
The subject of assay [12] is SF-295.
For assay [13], the system named is HT-29.
In assay [14] the test system is SNB-19.
The test system of assay [15] is SN12C.
Assay [16] deals with RXF 393.
In assay [17] the test system is KM12.
The test system of assay [18] is A549.
Assay [19] concerns SW-620.
The subject of assay [20] is OVCAR-4.

In the case of `O=C(c1cccs1)N1CCc2ccccc2C1`, the GI50 was > 100 µM (inactive) in assay [1]; > 100 µM (inactive) in assay [2]; > 100 µM (inactive) in [3]; > 100 µM (inactive) in [4]; > 100 µM (inactive) in assay [5]; 62.4 µM (inactive) in assay [6]. The GI50 in assay [7] was more than 100 µM; in assay [8] it was 97.5 µM (inactive); in [9] it was > 100 µM (inactive); in assay [10] it was > 100 µM (inactive); in assay [11] it was > 100 µM (inactive); in assay [12], > 100 µM (inactive). The GI50 in [13] is > 100 µM (inactive); in [14], > 100 µM (inactive); in [15] it was > 100 µM (inactive); in assay [16] it was > 100 µM (inactive); in assay [17] it was 74.8 µM (inactive); in [18] it was > 100 µM (inactive). Also, in assay [19], the GI50 is > 100 µM (inactive).
Take `COC(=O)/C=C(\CC(=O)OC)n1nnnc1[C@@H]1C[C@H](COC(c2ccccc2)(c2ccccc2)c2ccccc2)[C@H]2OC(C)(C)O[C@H]21`: the GI50 was 60.5 µM (inactive) in assay [1]; > 100 µM (inactive) in assay [2]; > 100 µM (inactive) in [3]; > 100 µM (inactive) in assay [4]; > 100 µM (inactive) in assay [5]; 76.7 µM (inactive) in [6]. In addition, the GI50 in assay [8] was 92 µM (inactive); in assay [9] it was > 100 µM (inactive); in assay [20], > 100 µM (inactive); in assay [10] it was > 100 µM (inactive); in assay [11], > 100 µM (inactive); in assay [12], > 100 µM (inactive). Moreover, the GI50 is > 100 µM (inactive) in assay [13]; > 100 µM (inactive) in assay [14]; > 100 µM (inactive) in [15]; 42.1 µM (inactive) in [16]; > 100 µM (inactive) in assay [17]; > 100 µM (inactive) in [18]. Moreover, the GI50 in assay [19] was > 100 µM (inactive).
Take `CCOC(=O)NC(OCCN(C)C)(C(F)(F)F)C(F)(F)F`: the GI50 in assay [1], in assay [2], in assay [3], in assay [4], in assay [5] and in assay [6] was > 100 µM (inactive) throughout. The GI50 was more than 100 µM in assay [7]; > 100 µM (inactive) in [8]; > 100 µM (inactive) in assay [9]; > 100 µM (inactive) in [10]; > 100 µM (inactive) in assay [11]; > 100 µM (inactive) in assay [12]. Further, the GI50 is > 100 µM (inactive) in [13]; > 100 µM (inactive) in [14]; > 100 µM (inactive) in assay [15]; 9.79 µM (inactive) in [16]; > 100 µM (inactive) in assay [17]; > 100 µM (inactive) in [18]. Besides, the GI50 in [19] is > 100 µM (inactive).
Consider `CCOC(=O)c1cc(C2(O)CCN(Cc3ccccc3)C2=O)c(-c2cc(C)no2)[nH]1` (stereo not drawn), for which the GI50 is 46.7 µM (inactive) in assay [1]; > 100 µM (inactive) in assay [2]; 60.3 µM (inactive) in assay [3]; 44.7 µM (inactive) in [4]; > 100 µM (inactive) in assay [5]; 40 µM (inactive) in [6]. The GI50 was 71.3 µM in assay [7]; 27.3 µM (inactive) in assay [8]; 64.7 µM (inactive) in assay [9]; 30.3 µM (inactive) in assay [20]; 29 µM (inactive) in assay [10]; 55.7 µM (inactive) in [11]. Also, the GI50 in assay [12] is 25.6 µM (inactive); in [14] it was 81.1 µM (inactive); in assay [15], 69 µM (inactive); in assay [16], 13.3 µM (inactive); in [17], 37.8 µM (inactive); in assay [18] it was 40.1 µM (inactive). For the same compound, the GI50 in assay [19] was 47.1 µM (inactive).
As to `CC(=O)Oc1cc(OC(C)=O)c2c(c1C)CC[C@@H]1[C@@H]2CC[C@]2(C)[C@@H](OC(C)=O)CC[C@@H]12`, the GI50 is 17.2 µM (inactive) in assay [1]; 18.9 µM (inactive) in assay [2]; 19.8 µM (inactive) in assay [3]; 18 µM (inactive) in assay [4]; 15.6 µM (inactive) in assay [5]; 17.1 µM (inactive) in assay [6]. For the same compound, the GI50 in assay [7] was 17.3 µM; in [8] it was 16.8 µM (inactive); in assay [9], 20.9 µM (inactive); in assay [10] it was 16.1 µM (inactive); in assay [11], 17.4 µM (inactive); in assay [12], 23 µM (inactive). Also, the GI50 was 15.8 µM (inactive) in [13]; 18.6 µM (inactive) in [14]; 17.5 µM (inactive) in assay [15]; 13.1 µM (inactive) in [16]; 16.6 µM (inactive) in assay [17]; 18.5 µM (inactive) in assay [18]. For the same compound, the GI50 in assay [19] was 18.9 µM (inactive).
`NNC(=O)c1ccccc1NC(=O)/C(=C/c1ccccc1O)NC(=O)c1ccccc1`: the GI50 in [1] is 14.5 µM (inactive); in assay [2], 94.6 µM (inactive); in [3] it was 16.3 µM (inactive); in [4], 33.6 µM (inactive); in assay [5], 25.4 µM (inactive); in assay [6], 72.3 µM (inactive). Further, the GI50 in assay [7] is 21.7 µM; in assay [8] it was 0.0156 µM (active); in assay [20], 27.3 µM (inactive); in assay [10], 20.3 µM (inactive); in assay [11] it was 26.5 µM (inactive); in [12] it was 44.8 µM (inactive). Moreover, the GI50 is > 100 µM (inactive) in [13]; 24.1 µM (inactive) in assay [14]; 28 µM (inactive) in [15]; 63 µM (inactive) in assay [16]; 5.62 µM (inactive) in assay [17]; > 100 µM (inactive) in assay [18]. Moreover, the GI50 in [19] was > 100 µM (inactive).
Regarding `COc1ccc(NC(/C(C(=O)c2ccccc2)=C(\O)C(=O)/C=C(\O)c2ccccc2)c2ccc(OC)cc2)cc1` (stereo not drawn), the GI50 was 35 µM (inactive) in assay [1]; 35.7 µM (inactive) in assay [2]; 31 µM (inactive) in assay [3]; 38.9 µM (inactive) in assay [4]; 21.2 µM (inactive) in [5]; 49.3 µM (inactive) in assay [6]. The GI50 was 42.1 µM in assay [7]; 31.6 µM (inactive) in assay [8]; 52.4 µM (inactive) in assay [9]; 30.5 µM (inactive) in [20]; > 100 µM (inactive) in assay [10]; > 100 µM (inactive) in [11]. For the same compound, the GI50 in assay [12] was 33 µM (inactive); in assay [13], 45.8 µM (inactive); in assay [14], 65.8 µM (inactive); in assay [15], > 100 µM (inactive); in assay [16], 37.1 µM (inactive); in [17], 30.9 µM (inactive). Besides, the GI50 in [18] was 28.6 µM (inactive).
In the case of `Cc1cc2c(cc1-c1cc3c(cc1C)C(C(C)C)=C(O)C(=O)/C3=C\Nc1ccccn1)/C(=C/Nc1ccccn1)C(=O)C(O)=C2C(C)C`, the GI50 in assay [1] is 31.1 µM (inactive); in [2], > 100 µM (inactive); in assay [3], 52.2 µM (inactive); in assay [4] it was 34.4 µM (inactive); in [5], 21.6 µM (inactive); in assay [6], 30.3 µM (inactive). Besides, the GI50 in assay [7] was 33.9 µM; in assay [8] it was 42.7 µM (inactive); in assay [20], 34.9 µM (inactive); in assay [10] it was 94.6 µM (inactive); in assay [11], 23 µM (inactive); in assay [12] it was 49.9 µM (inactive). The GI50 in assay [14] is 52.6 µM (inactive); in assay [15], 74.6 µM (inactive); in assay [16], 45.5 µM (inactive); in [17], 24.5 µM (inactive); in assay [18] it was 31.3 µM (inactive); in assay [19], 48 µM (inactive).
With `Cc1csc2c(P(=O)(OC(C)C)OC(C)C)c(-c3ccccc3)cn12`, the GI50 in assay [1] is 15.4 µM (inactive); in [2], 18.7 µM (inactive); in assay [3], 15.7 µM (inactive); in assay [4], 16 µM (inactive); in assay [5] it was 19.9 µM (inactive); in assay [6], 16.2 µM (inactive). In addition, the GI50 in assay [7] is 15.9 µM; in assay [8] it was 16.6 µM (inactive); in assay [9], 18.2 µM (inactive); in assay [20] it was 17.5 µM (inactive); in assay [10] it was 17 µM (inactive); in assay [12], 16.9 µM (inactive). For the same compound, the GI50 was 15.6 µM (inactive) in assay [13]; 15.1 µM (inactive) in [14]; 17.1 µM (inactive) in assay [15]; 17.5 µM (inactive) in assay [16]; 16.8 µM (inactive) in assay [17]; 16.6 µM (inactive) in assay [18]. Moreover, the GI50 in assay [19] was 18.3 µM (inactive).
In the case of `COc1cc2nc(-c3ccccc3F)nc(O)c2cc1OC`, the GI50 is > 100 µM (inactive) in [1]; > 100 µM (inactive) in assay [2]; > 100 µM (inactive) in assay [3]; > 100 µM (inactive) in [5]; > 100 µM (inactive) in [6]; 49.2 µM in [7]. Also, the GI50 in assay [8] is > 100 µM (inactive); in [9], 92.5 µM (inactive); in [20] it was > 100 µM (inactive); in assay [10], > 100 µM (inactive); in assay [11], > 100 µM (inactive); in assay [12] it was > 100 µM (inactive). The GI50 in assay [13] was 59.4 µM (inactive); in [14], 63.8 µM (inactive); in assay [15], > 100 µM (inactive); in [16] it was > 100 µM (inactive); in [17], > 100 µM (inactive); in [18] it was > 100 µM (inactive).

The record behind these values is ChEMBL document CHEMBL1201862, “PubChem BioAssay data set” (2004).
